The record followed here is patent US9073855B2, “BCL-2 selective apoptosis-inducing agents for the treatment of cancer and immune diseases” (AbbVie Inc., priority 2008, dated 2015).

By EC50 is commonly meant the midpoint of the concentration-response curve. Broadly, the Ki is the dissociation constant of the complex between target and ligand, obtained from inhibition or displacement. A higher Ki goes with lower affinity.

The test system of one experiment is FL5.12/Bcl-2 cells. Nature of the experiment: FL5.12/Bcl-2 cell viability assay under IL-3 withdrawal (CellTitre Glo). Format: cell-based, murine. Particulars: Mus musculus, IL-3 withdrawn 48 hrs, then 24 hrs with compound. In short, it runs like this:
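IL-3 withdrawal 48 hrs (no WEHI-3B medium), then compound 24 hrs, various concentrations; 37° C, 5% CO2; readout CellTitre Glo. Murine prolymphocytic FL5.12 stably overexpressing Bcl-2.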

The next experiment relates to Canine platelets. In words: Platelet cell viability assay (platelet-rich plasma, Cell Titer Glo). Format: cell-based. Particulars: Canis lupus familiaris, 5 h, isolated canine platelets ex vivo, five hours at 37° C. As for the experimental part: After the incubation, platelets were equilibrated to room temperature for 20 minutes and then an equal volume of Cell Titer Glo reagent (Promega Corporation) was added. Samples were mixed for two minutes and then allowed to equilibrate for an additional 10 minutes at room temperature. The luminescence generated from the samples was quantitated using an LJL Analyst plate reader.
The effect of compounds on platelet survival can be directly evaluated ex vivo by examining the viability of isolated canine platelets in the presence of various concentrations of compound.
On the technique in general: In ATP-based viability assays light output follows the ATP content of the culture.

The next experiment has as its target GST-Bcl-2 (Homo sapiens, UniProt P10415). Nature of the experiment: TR-FRET binding assay, GST-Bcl-2 with F-Bak peptide probe. Particulars: for Ki: TR-FRET Binding Affinity, GST-Bcl-2, F-Bak peptide probe; for Binding selectivity ratio (Bcl-XL Ki/Bcl-2 Ki): ratio of TR-FRET Ki values, Bcl-XL over Bcl-2. In short, it runs like this:
(§1)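 Displacement of a fluorescein-labelled Bak peptide from the GST-tagged protein was followed by time-resolved FRET with a terbium anti-GST donor after 3 h incubation at room temperature. Inhibition constants were calculated with Wang's equation.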
(In general: In TR-FRET formats the signal depends on donor and acceptor labels being close together.)

A further experiment addresses GST-Bcl-XL (Homo sapiens, UniProt Q07817). Nature of the experiment: TR-FRET binding assay, GST-Bcl-XL with F-Bak peptide probe. The settings on record: TR-FRET Binding Affinity, GST-Bcl-XL, F-Bak peptide probe. The method, boiled down: as §1

Where only a bound is given, the exact number is not on record here.

GST-Bcl-2, sequence (P10415 whole entry): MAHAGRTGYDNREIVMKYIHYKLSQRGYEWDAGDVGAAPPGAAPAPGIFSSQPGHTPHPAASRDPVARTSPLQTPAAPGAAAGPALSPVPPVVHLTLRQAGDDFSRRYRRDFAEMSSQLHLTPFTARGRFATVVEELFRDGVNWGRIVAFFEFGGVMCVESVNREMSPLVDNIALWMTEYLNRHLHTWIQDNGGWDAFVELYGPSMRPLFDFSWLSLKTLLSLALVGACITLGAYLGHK
GST-Bcl-XL, sequence (Q07817 whole entry): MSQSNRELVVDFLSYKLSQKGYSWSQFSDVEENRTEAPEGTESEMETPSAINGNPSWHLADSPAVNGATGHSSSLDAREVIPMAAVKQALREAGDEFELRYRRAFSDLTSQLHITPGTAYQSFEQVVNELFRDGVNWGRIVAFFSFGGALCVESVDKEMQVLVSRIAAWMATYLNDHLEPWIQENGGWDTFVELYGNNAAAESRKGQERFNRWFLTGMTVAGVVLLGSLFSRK

`CC1(C)CCC(CN2CCN(c3ccc(C(=O)NS(=O)(=O)c4ccc(NCCCN5CCOCC5)c([N+](=O)[O-])c4)c(Oc4ccccc4)c3)CC2)=C(c2ccc(Cl)cc2)C1` [Example 18, 4-(4-{[2-(4-chlorophenyl)-4,4-dimethylcyclohex-1-en-1-yl]methyl}piperazin-1-yl)-N-({4-[(3-morpholin-4-ylpropyl)amino]-3-nitrophenyl}sulfonyl)-2-phenoxybenzamide]: the EC50 in the experiment on FL5.12/Bcl-2 cells was 123 nM; with Canine platelets it was 29700 nM. The inhibitory constant (Ki) on GST-Bcl-2 worked out at 0.238 nM; on GST-Bcl-XL, 8.13 nM.
In the case of `CN1CCC(Nc2ccc(S(=O)(=O)NC(=O)c3ccc(N4CCN(CC5=C(c6ccc(Cl)cc6)CC(C)(C)CC5)CC4)cc3Oc3ccc4[nH]ncc4c3)cc2[N+](=O)[O-])CC1` [Example 21, 4-(4-{[2-(4-chlorophenyl)-4,4-dimethylcyclohex-1-en-1-yl]methyl}piperazin-1-yl)-2-(1H-indazol-5-yloxy)-N-({4-[(1-methylpiperidin-4-yl)amino]-3-nitrophenyl}sulfonyl)benzamide], the EC50 was 1010 nM in the experiment on FL5.12/Bcl-2 cells and greater than 50000 nM in the experiment on Canine platelets. Besides, the Ki at GST-Bcl-2 is 5.43 nM; at GST-Bcl-XL, 190 nM.
With `CN1CCC(Nc2ccc(S(=O)(=O)NC(=O)c3ccc(N4CCN(CC5=C(c6ccc(Cl)cc6)CC(C)(C)CC5)CC4)cc3Oc3ccc4[nH]ccc4c3)cc2S(=O)(=O)C(F)(F)F)CC1` [Example 76, 4-(4-{[2-(4-chlorophenyl)-4,4-dimethylcyclohex-1-en-1-yl]methyl}piperazin-1-yl)-2-(1H-indol-5-yloxy)-N-({4-[(1-methylpiperidin-4-yl)amino]-3-[(trifluoromethyl)sulfonyl]phenyl}sulfonyl)benzamide], the EC50 in the experiment on FL5.12/Bcl-2 cells was found to be 39 nM; in the experiment on Canine platelets, 8660 nM. On GST-Bcl-XL, this compound returned an inhibitory constant (Ki) of 3.29 nM.
On the same counts, the results for `CN1CCC(Nc2ccc(S(=O)(=O)NC(=O)c3ccc(N4CCN(CC5=C(c6ccc(Cl)cc6)CC(C)(C)CC5)CC4)cc3Oc3ccc4[nH]ccc4c3)cc2[N+](=O)[O-])CC1` [Example 98, 4-(4-{[2-(4-chlorophenyl)-4,4-dimethylcyclohex-1-en-1-yl]methyl}piperazin-1-yl)-2-(1H-indol-5-yloxy)-N-({4-[(1-methylpiperidin-4-yl)amino]-3-nitrophenyl}sulfonyl)benzamide] are 4 nM, 17900 nM and greater than 660 nM.
With `CN(C)CCCOc1ccc(S(=O)(=O)NC(=O)c2ccc(N3CCN(CC4=C(c5ccc(Cl)cc5)CC(C)(C)CC4)CC3)cc2Oc2cccc3[nH]ccc23)cc1[N+](=O)[O-]` [Example 106, 4-(4-{[2-(4-chlorophenyl)-4,4-dimethylcyclohex-1-en-1-yl]methyl}piperazin-1-yl)-N-({4-[3-(dimethylamino)propoxy]-3-nitrophenyl}sulfonyl)-2-(1H-indol-4-yloxy)benzamide], the EC50 in the experiment on FL5.12/Bcl-2 cells worked out at 9 nM; in the experiment with Canine platelets it was 15200 nM.
The matching figures for `CN(C)CCOc1cccc(-c2ccc(Cl)cc2)c1CN1CCN(c2ccc(C(=O)NS(=O)(=O)c3ccc(NCC4CCOCC4)c([N+](=O)[O-])c3)c(Oc3ccc4[nH]ccc4c3)c2)CC1` [Example 129, 4-[4-({4′-chloro-3-[2-(dimethylamino)ethoxy]-1,1′-biphenyl-2-yl}methyl)piperazin-1-yl]-2-(1H-indol-5-yloxy)-N-({3-nitro-4-[(tetrahydro-2H-pyran-4-ylmethyl)amino]phenyl}sulfonyl)benzamide]: 21 nM and greater than 50000 nM.
Consider `CN1CCC(Nc2ccc(S(=O)(=O)NC(=O)c3ccc(N4CCN(CC5=C(c6ccc(Cl)cc6)CCC5)CC4)cc3Oc3cccc4[nH]ccc34)cc2[N+](=O)[O-])CC1` [Example 148, 4-(4-{[2-(4-chlorophenyl)cyclopent-1-en-1-yl]methyl}piperazin-1-yl)-2-(1H-indol-4-yloxy)-N-({4-[(1-methylpiperidin-4-yl)amino]-3-nitrophenyl}sulfonyl)benzamide], for which, in the experiment with Canine platelets, the midpoint of the response, the EC50, lay at 19800 nM. The results for the Ki at GST-Bcl-2 and on GST-Bcl-XL were 2.89 nM and greater than 660 nM, respectively.
Consider `CC1(C)CCC(CN2CCN(c3ccc(C(=O)NS(=O)(=O)c4ccc(OCC5(F)CCOCC5)c([N+](=O)[O-])c4)c(Oc4cccc5[nH]cnc45)c3)CC2)=C(c2ccc(Cl)cc2)C1` [Example 408, 2-(1H-benzimidazol-4-yloxy)-4-(4-{[2-(4-chlorophenyl)-4,4-dimethylcyclohex-1-en-1-yl]methyl}piperazin-1-yl)-N-({4-[(4-fluorotetrahydro-2H-pyran-4-yl)methoxy]-3-nitrophenyl}sulfonyl)benzamide], for which the EC50 in the experiment on FL5.12/Bcl-2 cells was found to be 2.39 nM. In addition, the Ki on GST-Bcl-2 worked out at 0.002 nM; on GST-Bcl-XL it was 28.1 nM.
The matching figures for `CC1(C)CCC(CN2CCN(c3ccc(C(=O)NS(=O)(=O)c4ccc(NCC5(F)CCOCC5)c([N+](=O)[O-])c4)c(Oc4cccc5[nH]ncc45)c3)CC2)=C(c2ccc(Cl)cc2)C1` [Example 409, 4-(4-{[2-(4-chlorophenyl)-4,4-dimethylcyclohex-1-en-1-yl]methyl}piperazin-1-yl)-N-[(4-{[(4-fluorotetrahydro-2H-pyran-4-yl)methyl]amino}-3-nitrophenyl)sulfonyl]-2-(1H-indazol-4-yloxy)benzamide]: 1.2 nM, less than 0.01 nM and 17.5 nM.
`CC1(C)CCC(CN2CCN(c3ccc(C(=O)NS(=O)(=O)c4cnc(OCC5(F)CCOCC5)c(C(F)(F)F)c4)c(Oc4cccc5[nH]ncc45)c3)CC2)=C(c2ccc(Cl)cc2)C1` [Example 410, 4-(4-{[2-(4-chlorophenyl)-4,4-dimethylcyclohex-1-en-1-yl]methyl}piperazin-1-yl)-N-{[6-[(4-fluorotetrahydro-2H-pyran-4-yl)methoxy]-5-(trifluoromethyl)pyridin-3-yl]sulfonyl}-2-(1H-indazol-4-yloxy)benzamide]: the EC50 with FL5.12/Bcl-2 cells was 13.9 nM. The Ki is 0.055 nM on GST-Bcl-2 and 102 nM at GST-Bcl-XL.
With `CC1(C)CCC(CN2CCN(c3ccc(C(=O)NS(=O)(=O)c4ccc(NCC5CN(C6CC6)CCO5)c([N+](=O)[O-])c4)c(Oc4cccc5[nH]ncc45)c3)CC2)=C(c2ccc(Cl)cc2)C1` (centres unmarked) [Example 411, 4-(4-{[2-(4-chlorophenyl)-4,4-dimethylcyclohex-1-en-1-yl]methyl}piperazin-1-yl)-N-[(4-{[(4-cyclopropylmorpholin-2-yl)methyl]amino}-3-nitrophenyl)sulfonyl]-2-(1H-indazol-4-yloxy)benzamide], the EC50 with FL5.12/Bcl-2 cells turned out to be 11.4 nM. For the same compound, at GST-Bcl-2, the Ki stood at 0.003 nM and the “Binding selectivity ratio (Bcl-XL Ki/Bcl-2 Ki)” value was determined as 2352.3. The Ki at GST-Bcl-XL is 7.45 nM.
On the same counts, the results for `CC1(C)CCC(CN2CCN(c3ccc(C(=O)NS(=O)(=O)c4ccc(NCC5CCC(F)(F)CC5)c([N+](=O)[O-])c4)c(Oc4cccc5[nH]ncc45)c3)CC2)=C(c2ccc(Cl)cc2)C1` [Example 412, 4-(4-{[2-(4-chlorophenyl)-4,4-dimethylcyclohex-1-en-1-yl]methyl}piperazin-1-yl)-N-[(4-{[(4,4-difluorocyclohexyl)methyl]amino}-3-nitrophenyl)sulfonyl]-2-(1H-indazol-4-yloxy)benzamide] are 9.48 nM, 0.021 nM, 6545.5 and 135 nM.
